# Like-named read-outs stand apart in the source and are kept apart here.
# Experiments:
# [1] = tested on: T. cruzi Tulahuen strain parasites in 3T3 host cells; test: T. cruzi 48 h image-based assay; format: cell-based, Trypanosoma cruzi; details: for Emax / IC50 / Emax % (T. cruzi): 48 h; for Emax: read-out: Emax % (T. cruzi) (converted); for IC50: read-out: IC50 (T. cruzi); for SI (T. cruzi) 3T3: selectivity index in relation to 3T3 host cells, highest dose 3T3 73 µM; for SI (T. cruzi) HEK: selectivity index in relation to HEK293 cells; for SI (T. cruzi) (HEP): selectivity index in relation to HEPG2 cells
# HEPG2 cells = test: HEPG2 cytotoxicity assay; format: cell-based, human; details: HEPG2, 72 h, NA = not active, highest dose 79 µM unless given; for IC50: read-out: IC50 (HEP) (converted)
# T. cruzi [2] = test: T. cruzi temporal image-based assay, 24 h exposure; format: cell-based, Trypanosoma cruzi; details: for IC50: NA = not active at given concentration, read-out: IC50 24 h T. cruzi
# T. cruzi [3] = test: T. cruzi compound wash off assay (48 h with compound, wash off, 72 h without); format: cell-based, Trypanosoma cruzi; details: T. cruzi; for Fold Change of IC50, wash off vs 48 h: IC50 from 48 h incubation to IC50 following wash off and further 72 h; for IC50: read-out: IC50 Wash Off
# T. cruzi and T.b. brucei = test: Speed of action and cidality classification from temporal and wash off assays; format: cell-based, Trypanosoma cruzi, Trypanosoma brucei brucei; details: for Speed of Action (FA/SA): TC = T. cruzi, TBB = T.b. brucei
# [4] = tested on: T.b. brucei bloodstream 427 strain parasites; test: T.b. brucei 72 h REDOX-based (resazurin) viability assay; format: cell-based, Trypanosoma brucei brucei; details: for Emax % (T.b. brucei) / IC50 / Emax: 72 h; for SI (T.b. brucei) HEK: selectivity index in relation to HEK293 cells; for SI (T.b. brucei) (HEP): selectivity index in relation to HEPG2 cells
# HEK293 cells = test: HEK293 cytotoxicity assay; format: cell-based, human; details: HEK293, 72 h, NA = not active, highest dose 79 µM unless given
# T.b. brucei [5] = test: T.b. brucei temporal viability (time-kill) assay, 24 h, PrestoBlue; format: cell-based, Trypanosoma brucei brucei; details: for Emax: read-out: Emax 24 h T.b. brucei (converted); for IC50: read-out: IC50 24 h T.b. brucei
# Experimental: Time-kill assays was undertaken as previously described, using the REDOX reagent PrestoBlue® [24]. […] Control compounds were added at the same concentrations at outlined for the resazurin-based assays.
# T.b. brucei [6] = test: T.b. brucei temporal viability (time-kill) assay, 48 h, PrestoBlue; format: cell-based, Trypanosoma brucei brucei; details: for Emax: read-out: Emax 48 h T.b. brucei (converted); for IC50: read-out: IC50 48 h T.b. brucei
# T.b. gambiense STIB930 = T.b. gambiense STIB930 assay, 72 h; format: cell-based; details: Trypanosoma brucei, unit inferred, read-out: IC50 T. Bg STIB930 (T.b. gambiense)
# [7] = Trypanosoma cruzi, 48 h incubation, wash off, further 72 h
# [8] = 48 h incubation, wash off, further 72 h
smiles,measurement,setting,value
"O=C(Cn1ccnc1[N+](=O)[O-])NCc1ccccc1 [Benznidazole, reference compound]",Emax,"[1]; Trypanosoma cruzi, TULAHUEN",100%
same,IC50,"[1]; Trypanosoma cruzi, TULAHUEN",3400 ± 710 nM
same,SI (T. cruzi) 3T3,[1],>37
same,IC50 (HEP),HEPG2 cells,NT (NA at 127 µM)
same,IC50,T. cruzi [2]; Trypanosoma cruzi,4700 ± 1400 nM
same,"Fold Change of IC50, wash off vs 48 h",T. cruzi [3],0.29 fold
same,IC50,T. cruzi [3]; [7],1200 ± 110 nM
same,Speed of Action (FA/SA),T. cruzi and T.b. brucei,"FA (Fast-acting (FA) = IC50 value can be determined following 24 h incubation, <10-fold difference in the IC50 value from 24 to 72 h)"
CN(C)c1cc(NC(=O)Nc2ccccc2)c2ccccc2n1 [MMV 006901],Emax % (T.b. brucei),[4],99%
same,IC50,[4],4900 ± 8.5 nM
same,SI (T.b. brucei) HEK,[4],3.7
same,SI (T.b. brucei) (HEP),[4],1.8
same,Emax % (T. cruzi),[1],100%
same,IC50,[1],1200 ± 110 nM
same,SI (T. cruzi) 3T3,[1],>60 ^4
same,SI (T. cruzi) HEK,[1],15
same,SI (T. cruzi) (HEP),[1],7.1
same,IC50,HEK293 cells,18000 ± 810 nM
same,IC50,HEPG2 cells,9800 nM
O=C(Nc1ccc2c(c1)B(O)OC2)c1ccccc1C(F)(F)F [MMV 652003],Emax,[4]; Trypanosoma brucei,100%
same,IC50,[4]; Trypanosoma brucei,92 ± 2.7 nM
same,SI (T.b. brucei) HEK,[4],74
same,SI (T.b. brucei) (HEP),[4],> 862
same,Emax,"[1]; Trypanosoma cruzi, TULAHUEN",100%
same,IC50,"[1]; Trypanosoma cruzi, TULAHUEN",150 ± 4 nM
same,SI (T. cruzi) 3T3,[1],>487
same,SI (T. cruzi) HEK,[1],45
same,SI (T. cruzi) (HEP),[1],> 548
same,IC50,HEK293 cells; Homo sapiens,6800 ± 204 nM
same,Emax,T. cruzi [2]; Trypanosoma cruzi,93%
same,IC50,T. cruzi [2]; Trypanosoma cruzi,1280 ± 560 nM
same,"Fold Change of IC50, wash off vs 48 h",T. cruzi [3],3.4 fold
same,Emax,T. cruzi [3]; [7],99%
same,IC50,T. cruzi [3]; [7],510 ± 80 nM
same,Emax,T.b. brucei [5]; Trypanosoma brucei,100%
same,IC50,T.b. brucei [5]; Trypanosoma brucei,450 ± 67 nM
same,Emax,T.b. brucei [6]; Trypanosoma brucei,100%
same,IC50,T.b. brucei [6]; Trypanosoma brucei,110 ± 12 nM
same,Speed of Action (FA/SA),T. cruzi and T.b. brucei,"FA (Fast-acting (FA) = IC50 value can be determined following 24 h incubation, <10-fold difference in the IC50 value from 24 to 72 h)"
same,Speed of Action (Table 5),"T. cruzi and T.b. brucei; prioritised compounds, Fast/Slow",Fast
CCCCN(CCCC)c1c(C#N)cc(S(=O)(=O)Nc2ccccc2)cc1C#N [MMV 688467],Emax % (T.b. brucei),[4],99%
same,IC50,[4],310 ± 6.9 nM
same,SI (T.b. brucei) HEK,[4],> 254
same,SI (T.b. brucei) (HEP),[4],74
same,Emax % (T. cruzi),[1],98%
same,Emax % (T. cruzi),[1]; listed as MMV688467,> 95%
same,IC50,[1],2300 ± 460 nM
same,SI (T. cruzi) 3T3,[1],>32
same,SI (T. cruzi) HEK,[1],> 34
same,SI (T. cruzi) (HEP),[1],10
same,IC50,HEPG2 cells,23000 nM
same,Emax 24 h T. cruzi,T. cruzi [2],75%
same,IC50,T. cruzi [2],4400 ± 730 nM
same,Emax Wash Off,T. cruzi [3]; [8],100%
same,IC50,T. cruzi [3]; [8],2100 ± 440 nM
same,"Fold Change of IC50, wash off vs 48 h",T. cruzi [3],0.91 fold
same,Emax 24 h T.b. brucei,T.b. brucei [5],88%
same,IC50,T.b. brucei [5],1200 ± 350 nM
same,Emax 48 h T.b. brucei,T.b. brucei [6],100%
same,IC50,T.b. brucei [6],460 ± 18 nM
same,Speed of Action (FA/SA),T. cruzi and T.b. brucei,SA (TC)
"N=C(N)c1ccc(OCCCCCOc2ccc(C(=N)N)cc2)cc1 [Pentamidine, reference compound]",Emax,[4]; Trypanosoma brucei,100%
same,IC50,[4]; Trypanosoma brucei,3.1 ± 0.1 nM
same,SI (T.b. brucei) HEK,[4],>216
same,IC50 HEK,HEK293 cells,NA at 0.67 µM (NT)
same,Emax,T.b. brucei [5]; Trypanosoma brucei,99%
same,IC50,T.b. brucei [5]; Trypanosoma brucei,12 ± 2.1 nM
same,Emax,T.b. brucei [6]; Trypanosoma brucei,100%
same,IC50,T.b. brucei [6]; Trypanosoma brucei,0.2 ± 0.0021 nM
same,IC50,T.b. gambiense STIB930,3 ± 2 nM
same,Speed of Action (FA/SA),T. cruzi and T.b. brucei,"FA (Fast-acting (FA) = IC50 value can be determined following 24 h incubation, <10-fold difference in the IC50 value from 24 to 72 h)"
"COc1ccc(C[C@H](N)C(=O)N[C@H]2[C@@H](O)[C@H](n3cnc4c(N(C)C)ncnc43)O[C@@H]2CO)cc1 [Puromycin, reference compound]",Emax,[4]; Trypanosoma brucei,100%
same,IC50,[4]; Trypanosoma brucei,63 ± 0.41 nM
same,SI (T.b. brucei) HEK,[4],12
same,SI (T.b. brucei) (HEP),[4],4.0
same,Emax,"[1]; Trypanosoma cruzi, TULAHUEN",100%
same,IC50,"[1]; Trypanosoma cruzi, TULAHUEN",5600 ± 11 nM
same,SI (T. cruzi) 3T3,[1],1.2
same,SI (T. cruzi) HEK,[1],0.13
same,SI (T. cruzi) (HEP),[1],0.044
same,IC50,HEK293 cells; Homo sapiens,730 ± 270 nM
same,IC50,HEPG2 cells; Homo sapiens,250 nM
same,IC50,T. cruzi [2]; Trypanosoma cruzi,3500 ± 440 nM
same,"Fold Change of IC50, wash off vs 48 h",T. cruzi [3],0.50 fold
same,IC50,T. cruzi [3]; [7],2800 ± 130 nM
same,Emax,T.b. brucei [5]; Trypanosoma brucei,100%
same,IC50,T.b. brucei [5]; Trypanosoma brucei,96 ± 13 nM
same,Emax,T.b. brucei [6]; Trypanosoma brucei,100%
same,IC50,T.b. brucei [6]; Trypanosoma brucei,97 ± 0.42 nM
same,Speed of Action (FA/SA),T. cruzi and T.b. brucei,"FA (Fast-acting (FA) = IC50 value can be determined following 24 h incubation, <10-fold difference in the IC50 value from 24 to 72 h)"

# Source: PMC9317670, “Temporal and Wash-Out Studies Identify Medicines for Malaria Venture Pathogen Box Compounds with Fast-Acting Activity against Both Trypanosoma cruzi and Trypanosoma brucei” (Microorganisms, 2022)
